According to patent US5321023A, “Pyridoindolobenzodiazepines and derivatives as antipsychotics” (The Du Pont Merck Pharmaceutical Co., priority 1992, dated 1994):

System: rat
Test: Conditioned Avoidance Responding in Rat
Type: in vivo, rat (male CDF)
Details: inhibition of conditioned avoidance responding, oral, tested 30-360 minutes after administration, % of vehicle control, read-out: Peak ED50
Description: Conditioned Avoidance Responding in Rat
The procedure utilized is a modification of the procedure of Cook and Weidley (Ann. NY Acad Sci.66: 740-752, 1957).
Apparatus: A Coulbourn Instruments large modular test cage (25×30×30 cm) with a pole suspended from the center of the ceiling and a stainless steel grid floor. A 0.75 mA pulsed current (250 msec on, 750 msec off) is delivered to the grid floor by a Coulbourn Instruments programmable shocker.
Animals: Male CDF rats are purchased from Charles River Breeding Laboratories (Wilmington, Mass.).
Test Procedure: Each trial lasts 25 seconds. Ten seconds after the rat is placed in the testing apparatus, footshock is delivered for 15 seconds. The rat is immediately removed from the testing apparatus. If the rat climbs the pole within the first 10 seconds, footshock is avoided and an avoidance response is recorded. If the rat climbs the pole during the footshock period, an escape response is recorded. If the animal fails to climb the pole during the 25 second trial period, an escape failure is recorded.
Drug testing is initiated after rats are well trained to consistently avoid footshock. Rats are tested for conditioned avoidance responding at various time intervals (30-360 minutes) after oral administration of test compound.
For each dose of test compound, inhibition of conditioned avoidance responding is expressed as a percentage of the corresponding Drug Vehicle (control) value. The percent antagonism is used to calculate ED50 values when appropriate.

SMILES | ED50 [mg/kg]
Cc1cc2c3c(c1)c1c(n3-c3ccc(Cl)cc3NC2=O)CCN(C)C1 [Example 1, 11-chloro-1,2,3,4,8,9-hexahydro-3,6-dimethylpyrido[4',3':2,3]indolo[1,7-ab][1,5]benzodiazepin-8(9H)-one] | ≤ 20
Cc1cc2c3c(c1)c1c(n3-c3ccc(C(F)(F)F)cc3NC2=O)CCN(C)C1 [Example 3] | 20 to 50
Cc1cc2c3c(c1)c1c(n3-c3ccc(Cl)cc3NC2)CCN(C)C1 [Example 23, 11-chloro-1,2,3,4,8,9-hexahydro-3,6-dimethylpyrido[4',3':2,3]indolo[1,7-ab][1,5]benzodiazepine] | ≤ 20
Cc1cc2c3c(c1)c1c(n3-c3ccc(C(F)(F)F)cc3NC2)CCN(C)C1 [Example 25] | ≤ 20
